Patent publication US8501239B2 (priority 2005, dated 2013)
Where two headings read alike, the source gives them in different places.

Experiments:
[1] = tested on: Adult Sprague-Dawley rats; assay type: in vivo, rat
contusion SCI = test: Tissue sparing following moderate contusion SCI, T10 lesion epicenter; assay type: in vivo; settings: 5 mg/kg, 15 mins post-injury, 48 hours after SCI, p<0.05
Experimental: Bar graphs representing the extent of tissue sparing measured through cross-sections of the T10 segment injury epicenters 48 hours after a moderate (150 kydn) contusion SCI. […] Bars represent group means, SEM (n=5-6/group). Using an unpaired t-test, * indicates p<0.05 compared to vehicle-treated groups.

humans = settings: cited from earlier work
rat brain = settings: model of focal ischemia-reperfusion injury in the rat brain; cited from earlier work

SMILES | tissue sparing compared to vehicle-treated animals ([1]; rat, in vivo) | cross-sectional area of tissue preservation at lesion epicenter (contusion SCI; vs vehicle (DMSO)) | percentage of tissue sparing at the lesion epicenters (contusion SCI; vs vehicle controls) | weight loss as a function of dose (humans; FIG. 1 left panel, regardless of diet or lifestyle) | metabolism as a function of dosage (humans; FIG. 1 right panel) | reduction of infarct volume (rat brain) | tissue sparing compared to vehicle-treated animals ([1]; TBI rats, dosed 5 min post-injury (5 mg/kg 2,4-DNP, 2.5 mg/kg FCCP, 6.2 mg/kg), 15 days post-injury, p<0.01)
O=[N+]([O-])c1ccc(O)c([N+](=O)[O-])c1 [2,4-DNP, 2,4-dinitrophenol] | significantly increased tissue sparing | significantly greater cross-sectional area of tissue preservation | significantly higher percentage of tissue sparing | very linear increase in weigh loss | linear increase in metabolism | approximately 40% | 
N#CC(C#N)=NNc1ccc(OC(F)(F)F)cc1 [FCCP, carbonyl cyanide 4-trifluoromethoxy phenylhydrazone] |  |  |  |  |  |  | significantly increased tissue sparing
